“Also recorded” adds a separate entry of the source. Square brackets hold non-standard residues; d marks the D form. Ends that are not written are not given here. Aib = CC(C)(N)C(=O)O
system: bacteria; assay: Binding of targeting peptides to microorganisms (Table 3); details: microorganism bound by the targeting peptide; binding in aqueous buffers chosen by peptide solubility, preferably 1x PBS

| Substance | Target(s) |
| --- | --- |
| PF-231 (AVRDFKKSVREEDEAASLNSPRTIDAQVKTSESTSVKS; Peptide with targeting and/or antimicrobial activity) | S. mutans |
| PF-311 (IDAVTKKKTTCMIRAPTKIPIAHTDN; Peptide with targeting and/or antimicrobial activity) | C. difficile |
| PF-266 (DQEKKNKTEESTEQ; Peptide with targeting and/or antimicrobial activity) | S. mutans |
| PF-254 (FIYGVGFVPHFWLWKWLFSPWIAWPLMLLGYYIWFLT; Peptide with targeting and/or antimicrobial activity) | S. epidermidis; also recorded: M. luteus; also recorded: P. aeruginosa; also recorded: A. baumannii |
| PF-151 (EEYPARVPLSGEDVTEARRH; Peptide with targeting and/or antimicrobial activity) | S. epidermidis and MRSA and E. faecalis and C. jeikeium |
| PF-256 (EYFKQVYVKNEKIYSFWICKDLSPKEAAKRAEDILVKLK; Peptide with targeting and/or antimicrobial activity) | S. epidermidis |
| PF-154 (GIKKSKHPSTDDYVVKTTIDSL; Peptide with targeting and/or antimicrobial activity) | S. mutans |

same assay, conditions: microorganism the targeting peptide binds; binding in aqueous buffers that varied with peptide solubility, preferably 1x PBS

| Substance | Target(s) |
| --- | --- |
| PF-054 (VSISRFIGGGHVFNGNNKRNL; Peptide with targeting and/or antimicrobial activity) | S. epidermidis; also recorded: E. coli |
| TT-306 (KILNEAEGKLLKVIEKNGEIDIEEI; Peptide with targeting and/or antimicrobial activity) | F. nucleatum |
| 1T-268 (PITPKKEKCGLGTYAPKNPVFSKSRV; Peptide with targeting and/or antimicrobial activity) [Peptide 1T-268] | F. nucleatum; also recorded: S. mutans; also recorded: S. oralis; also recorded: S. sanguinis |
| PF-018 (YYKTYFKEV; Peptide with targeting and/or antimicrobial activity) | E. coli; also recorded: C. jeikeium |
| PF-S024 (SKRGRKRKDRRKKKANHGKRPNS; Peptide with targeting and/or antimicrobial activity) | Corynebacteria |
| 1T-295 (KYKLKKIIL; Peptide with targeting and/or antimicrobial activity) [Peptide 1T-295] | S. mitis; also recorded: S. salivarious; also recorded: S. sanguinis |
| 1T-249 (VFSVLKHTTWPTRKQSWHDFISILEYSAFFALVIFIFDKLLTLGLAELLKRF; Peptide with targeting and/or antimicrobial activity) [Peptide 1T-249] | F. nucleatum; also recorded: S. sanguinis |
| PF-055 (GHVFNGNNKRNL; Peptide with targeting and/or antimicrobial activity) | S. mutans |
| 1T-250 (LVQGDTILIENHVGTPVKDDGKDCLIIREADVLAVVND; Peptide with targeting and/or antimicrobial activity) [Peptide 1T-250] | S. mitis; also recorded: S. mutans; also recorded: S. oralis |
| 1T-264 (LEGKFYMAEDFDKTPECFKDYV; Peptide with targeting and/or antimicrobial activity) [Peptide 1T-264] | S. sanguinis |
| 1T-219 (RNINVSATFITEKSLV; Peptide with targeting and/or antimicrobial activity) [Peptide 1T-219] | S. sanguinis |

same assay, conditions: peptide binding in aqueous buffers that varied depending on peptide solubility; preferably 1x PBS

| Substance | Target(s) (microorganism bound by the targeting peptide) | Target(s) (microorganisms bound by the targeting peptide) |
| --- | --- | --- |
| PF-709 (NKKHSPMD; Peptide with targeting and/or antimicrobial activity) | S. mutans |  |
| PF-793 (YTQ[Aib]NNASAYAMLLTNKDTVP; ends and bridges not checked) | S. mutans |  |
| PF-501 (GSTAHKSPIGSTNNQWGMKKTPTD; Peptide with targeting and/or antimicrobial activity) |  | S. mutans |
| PF-S018 (GMPQIPRLRI; Peptide with targeting and/or antimicrobial activity) | S. epidermidis and M. luteus and C. albicans and MRSA and E. faecalis and C. jeikeium and C. jejuni |  |
| PF-727 (AYARCRHDYPFTLGQMQTH; Peptide with targeting and/or antimicrobial activity) | S. mutans; also recorded: E. coli |  |
| PF-496 (EVTKRLVALAQQQLRG; Peptide with targeting and/or antimicrobial activity) |  | S. mutans; also recorded: E. coli |
| PF-798 (ALHSKGIKVMADWVPDQMYA; Peptide with targeting and/or antimicrobial activity) | S. mutans |  |
| PF-767 (DGKQGEPVALKPTDN; Peptide with targeting and/or antimicrobial activity) | S. epidermidis and M. luteus and E. coli and MRSA and S. pneumoniae and E. faecalis and C. jeikeium |  |
| PF-490 (RLILVSGNATVQK; Peptide with targeting and/or antimicrobial activity) |  | S. mutans; also recorded: E. coli |
| PF-799 (YTHYNTALSYALLLTNKSSVP; Peptide with targeting and/or antimicrobial activity) | S. mutans |  |
| PF-673 (VRRLRM; Peptide with targeting and/or antimicrobial activity) | S. mutans; also recorded: E. coli |  |
| PF-731 (RHKLIRLPLSESVFCFLNNPKI; Peptide with targeting and/or antimicrobial activity) | L. pneumophila |  |
| PF-732 (DRPSQTTHHTLSSSRITGPS; Peptide with targeting and/or antimicrobial activity) | E. coli |  |
| PF-481 (DELYEIMDKVIEEFNKDIEQNNNNGNNEDLTENKIN; Peptide with targeting and/or antimicrobial activity) |  | C. jeikeium |

same assay, conditions: peptide binding in aqueous buffers varied by peptide solubility; preferably 1x PBS

| Substance | Target(s) (microorganism bound by the targeting peptide) |
| --- | --- |
| 1T-145 (VEAGKRNISLENIEKISKGLGISISELFKYIEEGEDKIG; Peptide with targeting and/or antimicrobial activity) [Peptide 1T-145] | S. mitis; also recorded: S. mutans; also recorded: S. oralis |
| 1T-22 (VPLDDGTRRPEVARNRDKDRED; Peptide with targeting and/or antimicrobial activity) [Peptide 1T-22] | S. epidermidis; also recorded: P. aeruginosa |
| 1T-13 (FRSPCINNNSLQPPGVYPAR; Peptide with targeting and/or antimicrobial activity) [Peptide 1T-13] | S. aureus; also recorded: S. epidermidis; also recorded: P. aeruginosa |
| 1T-92 (GQDEGQRRAGVGEGQGVDG; Peptide with targeting and/or antimicrobial activity) [Peptide 1T-92] | S. mitis; also recorded: S. mutans |
| 1T-59 (AVGNNLGKDNDSGHRGKKHRKHKHR; Peptide with targeting and/or antimicrobial activity) [Peptide 1T-59] | S. aureus; also recorded: S. epidermidis; also recorded: P. aeruginosa |
| 1T-84 (FRKKRYGLSILLWLNAFTNLVNSIHAFYMTLF; Peptide with targeting and/or antimicrobial activity) [Peptide 1T-84] | S. pneumoniae |
| 1T-50 (HSDEPIPNILFKSDSVH; Peptide with targeting and/or antimicrobial activity) [Peptide 1T-50] | P. aeruginosa |
| 1T-45 (WTKPSFTDLRLGFEVTLYFANR; Peptide with targeting and/or antimicrobial activity) [Peptide 1T-45] | S. aureus; also recorded: S. epidermidis; also recorded: C. striatum; also recorded: P. aeruginosa |
| 1T-108 (WGPLGPERPLW; Peptide with targeting and/or antimicrobial activity) [Peptide 1T-108] | S. gordonii; also recorded: S. mitis; also recorded: S. mutans; also recorded: S. oralis; also recorded: S. salivarious; also recorded: S. sanguinis |
| 1T-56 (LALIGAGIWMIRKG; Peptide with targeting and/or antimicrobial activity) [Peptide 1T-56] | C. xerosis; also recorded: P. aeruginosa |
| 1T-49 (SLVRIHDQQPWVTRGAFIDAARTCS; Peptide with targeting and/or antimicrobial activity) [Peptide 1T-49] | S. aureus; also recorded: S. epidermidis; also recorded: C. jeikeium; also recorded: P. aeruginosa |
| 1T-170 (AYGKVFSMDIMLSENDKLIVLRISHHSAWH; Peptide with targeting and/or antimicrobial activity) [Peptide 1T-170] | P. gingivalis |
| 1T-15 (DVILRVEAQ; Peptide with targeting and/or antimicrobial activity) [Peptide 1T-15] | S. mutans |
| 1T-28 (VSRDEAMEFIDREWTTLQPAGKSHA; Peptide with targeting and/or antimicrobial activity) [Peptide 1T-28] | P. aeruginosa |
| 1T-185 (HYHFLLEFGFHKGDYLE; Peptide with targeting and/or antimicrobial activity) [Peptide 1T-185] | A. naeslundii; also recorded: F. nucleatum; also recorded: P. gingivalis |
| 1T-109 (VTTNVRQGAGS; Peptide with targeting and/or antimicrobial activity) [Peptide 1T-109] | A. naeslundii; also recorded: S. epidermidis; also recorded: S. gordonii; also recorded: S. mitis; also recorded: S. mutans; also recorded: S. oralis; also recorded: S. salivarious; also recorded: S. sanguinis |

From patent US9597407B2, “Targeted antimicrobial moieties” (C3 Jian, Inc., priority 2009, dated 2017)
